In patent US10799442B2, “Compounds useful in the treatment and/or care of the skin, hair, nails, and/or mucous membranes” (LUBRIZOL ADVANCED MATERIALS, INC., priority 2015, dated 2020):

Assays:
[1] = tested on: SOX2; experiment: Modulation of stem cell markers in HEKa, Real Time PCR Arrays (SOX2 mRNA); assay type: cell-based, Human; details: 48 hours
Procedure: The candidate compound is evaluated for the modulation of several stem cell markers, those transcription factors regulated by miRNA145 (SOX2, OCT4, KLF4 and MYC). Gene expression profiles are analyzed by Real Time PCR Arrays using a 96-well panel for use with SYBR® Green (BioRad) to detect mRNA expression levels of stem cell markers plus three housekeeping genes, and five controls, in Human Epidermal Keratinocytes from adult (HEKa) (Cascade Biologics).
HEKa cells are seeded at 6.0×10^5 cells/well in 6-well plates and incubated in culture medium, Epilife with defined Growth Supplement (EDGS) (Cascade Biologics), for 24 hours at 37° C. in a water-saturated atmosphere of 95% air and 5% CO2. After 24 hours, the medium is removed and the cells are incubated with the synthetic peptide DD14024 at several concentrations in a culture medium. Cells are incubated with culture medium only and these provide the basal conditions. After 48 hours of treatment at 37° C. in a CO2 incubator, the cells are lysed directly in the wells, and RNA is purified following the protocol described on the RNeasy Mini kit (Qiagen) according to the manufacturer's protocol. After RNA elution, quantification and analysis of purity of RNA samples are performed with a biophotometer (Eppendorf). For each sample, 2 μg of high quality RNA is retrotranscribed with iScript Advanced (BioRad) in a final volume of 20 μl. The complete reaction mix is incubated in a thermal cycler (Eppendorf) at 42° C. for 30 minutes and the reaction is stopped at 85° C. for 5 minutes (?). Complementary DNA is amplified by qPCR in a real-time PCR thermocycler (BioRad) using SYBR Green Supermix (BioRad) in the 96-well panel for use with SYBR® Green (BioRad). SYBR Green binds to double-stranded DNA molecules and emits fluorescence which is quantified; the fluorescence intensity is proportional to the amount of the product in the PCR reaction. […] Fold change relative to the expression of the sample genes and reference genes is calculated using normalized expression (ΔΔ(Ct)) method using CFX Manager Software (BioRad). […]

[2] = tested on: Keratin 14; experiment: Keratin expression in reconstructed human epidermal tissue (RHE), immunohistochemistry (Keratin 14); assay type: cell-based; details: Keratin 14 immunofluorescence, 10 μg/ml, 48 hours
From the text: The human epidermis continuously renews itself by a process of proliferation and differentiation of keratinocytes. Basal epidermal stem cells proliferate and the differentiation process begins above the basal layer, whereby the differentiating keratinocytes slowly move outward from the basal membrane, migrate through the epidermis, and undergo terminal differentiation culminating in fully differentiated dead cells on the surface. The process is a dynamic flux so that surface cells are continuously sloughed and replaced by inner cells differentiating and moving outward. […] To study the ability of the peptides of the invention to recover the basal keratinocyte state, the expression of Keratins 10 and 14 is evaluated by immunohistochemistry in a three-dimensional culture system, Reconstructed Human Epidermal Tissue (RHE), that reproduces in vitro the histological organization of human epidermis in situ. […]
The expression of Keratins 10 and 14 is evaluated by immunohistochemistry with a specific primary antibody and a fluorescently labelled secondary antibody. […] At the end of the incubation, slides are washed with 0.2% solution of Tween 20 in PBS and are incubated with Alexa Fluor® 488 Goat anti-mouse IgG (H+L) secondary antibody (Invitrogen, green fluorescence emission dye) for 1 hour at room temperature in a dark humidified chamber. […]

Fold induction respect to basal conditions ([1]; 0.001 mg/ml): 1.62 ± 0.18
Fold induction respect to basal conditions ([1]; 0.005 mg/ml): 3.00 ± 0.55
Fold induction respect to basal conditions ([1]; 0.01 mg/ml): 2.81 ± 0.26
Substance: Ac-QEMRMQ-OH [DD14024, Ac-Gln-Glu-Met-Arg-Met-Gln-OH]
Fold induction respect to basal conditions (%) [2]: 425.83%
